Laboratory results as given in the CheMixHub viscosity set.
“And” between values parts separate entries of the source, which are not always exact repeats. Identical values can stand only once.

Experiment: xn = mol fraction of the nth substance listed

O=C[C@H](O)[C@@H](O)[C@H](O)[C@H](O)CO + O
Settings | viscosity
293.15 K, 101 kPa, x1 = 0.002 | 1.043 mPa·s
293.15 K, 101 kPa, x1 = 0.0026 | 1.079 mPa·s
293.15 K, 101 kPa, x1 = 0.005 | 1.13 mPa·s
293.15 K, 101 kPa, x1 = 0.011 | 1.24 mPa·s and 1.34 mPa·s
293.15 K, 101 kPa, x1 = 0.0244 | 1.95 mPa·s
293.15 K, 101 kPa, x1 = 0.0411 | 3.01 mPa·s
293.15 K, 101 kPa, x1 = 0.0625 | 5.4 mPa·s
293.15 K, 101.3 kPa, x1 = 0.001 | 1.021 mPa·s
298.15 K, 100 kPa, x1 = 0.0009 | 1.019 mPa·s
298.15 K, 101 kPa, x1 = 0.0002 | 0.9013 mPa·s
298.15 K, 101 kPa, x1 = 0.0005 | 0.9169 mPa·s
298.15 K, 101 kPa, x1 = 0.001 | 0.9634 mPa·s
298.15 K, 101 kPa, x1 = 0.0018 | 0.9874 mPa·s
298.15 K, 101 kPa, x1 = 0.002 | 0.9826 mPa·s
298.15 K, 101 kPa, x1 = 0.00413 | 0.9934 mPa·s
298.15 K, 101 kPa, x1 = 0.005 | 1.015 mPa·s
298.15 K, 101 kPa, x1 = 0.00623 | 1.03 mPa·s
298.15 K, 101 kPa, x1 = 0.011 | 1.15 mPa·s
298.15 K, 101 kPa, x1 = 0.02 | 1.42 mPa·s
298.15 K, 101 kPa, x1 = 0.0244 | 1.68 mPa·s
298.15 K, 101 kPa, x1 = 0.0411 | 2.48 mPa·s
298.15 K, 101 kPa, x1 = 0.0625 | 4.48 mPa·s
298.15 K, 101 kPa, x1 = 0.0909 | 8.75 mPa·s and 12.75 mPa·s
303.15 K, 100 kPa, x1 = 0.0009 | 0.9332 mPa·s
303.15 K, 101 kPa, x1 = 0.002 | 0.8392 mPa·s
303.15 K, 101 kPa, x1 = 0.004 | 0.8723 mPa·s
303.15 K, 101 kPa, x1 = 0.005 | 0.9084 mPa·s
303.15 K, 101.3 kPa, x1 = 0.001 | 0.814 mPa·s
308.15 K, 100 kPa, x1 = 0.0009 | 0.8522 mPa·s
308.15 K, 101 kPa, x1 = 0.00209 | 0.7871 mPa·s
308.15 K, 101 kPa, x1 = 0.004 | 0.7909 mPa·s
308.15 K, 101 kPa, x1 = 0.00413 | 0.8216 mPa·s
308.15 K, 101 kPa, x1 = 0.005 | 0.8313 mPa·s
308.15 K, 101 kPa, x1 = 0.008982 | 0.911 mPa·s
308.15 K, 101 kPa, x1 = 0.011 | 0.98 mPa·s and 1.05 mPa·s
308.15 K, 101 kPa, x1 = 0.01441 | 1.037 mPa·s
308.15 K, 101 kPa, x1 = 0.0179 | 1.134 mPa·s
308.15 K, 101 kPa, x1 = 0.02 | 1.133 mPa·s and 1.086 mPa·s
308.15 K, 101 kPa, x1 = 0.02311 | 1.278 mPa·s
308.15 K, 101 kPa, x1 = 0.0244 | 1.34 mPa·s
308.15 K, 101 kPa, x1 = 0.02991 | 1.442 mPa·s
308.15 K, 101 kPa, x1 = 0.03509 | 1.711 mPa·s
308.15 K, 101 kPa, x1 = 0.0411 | 1.94 mPa·s
308.15 K, 101 kPa, x1 = 0.05203 | 2.579 mPa·s
308.15 K, 101 kPa, x1 = 0.0591 | 3.084 mPa·s
308.15 K, 101 kPa, x1 = 0.0625 | 3.31 mPa·s
308.15 K, 101 kPa, x1 = 0.0909 | 6.58 mPa·s and 9 mPa·s
313.15 K, 100 kPa, x1 = 0.0009 | 0.7853 mPa·s
313.15 K, 101 kPa, x1 = 0.002 | 0.6943 mPa·s
313.15 K, 101 kPa, x1 = 0.004 | 0.7341 mPa·s
313.15 K, 101 kPa, x1 = 0.005 | 0.7858 mPa·s
313.15 K, 101 kPa, x1 = 0.011 | 0.81 mPa·s and 0.97 mPa·s
313.15 K, 101 kPa, x1 = 0.02 | 1.022 mPa·s and 0.9825 mPa·s
313.15 K, 101 kPa, x1 = 0.0244 | 1.19 mPa·s
313.15 K, 101 kPa, x1 = 0.0411 | 1.69 mPa·s
313.15 K, 101 kPa, x1 = 0.0625 | 2.96 mPa·s
313.15 K, 101 kPa, x1 = 0.0909 | 4.88 mPa·s and 5.67 mPa·s
313.15 K, 101 kPa, x1 = 0.13 | 13.08 mPa·s and 11.8 mPa·s
313.15 K, 101.3 kPa, x1 = 0.001 | 0.671 mPa·s
318.15 K, 101 kPa, x1 = 0.008982 | 0.756 mPa·s
318.15 K, 101 kPa, x1 = 0.011 | 0.71 mPa·s and 0.85 mPa·s
318.15 K, 101 kPa, x1 = 0.01441 | 0.861 mPa·s
318.15 K, 101 kPa, x1 = 0.0179 | 0.941 mPa·s
318.15 K, 101 kPa, x1 = 0.02 | 0.9234 mPa·s and 0.8774 mPa·s
318.15 K, 101 kPa, x1 = 0.02311 | 1.061 mPa·s
318.15 K, 101 kPa, x1 = 0.0244 | 1.05 mPa·s
318.15 K, 101 kPa, x1 = 0.02991 | 1.197 mPa·s
318.15 K, 101 kPa, x1 = 0.03509 | 1.42 mPa·s
318.15 K, 101 kPa, x1 = 0.0411 | 1.43 mPa·s
318.15 K, 101 kPa, x1 = 0.05203 | 2.141 mPa·s
318.15 K, 101 kPa, x1 = 0.0591 | 2.561 mPa·s
318.15 K, 101 kPa, x1 = 0.0625 | 2.47 mPa·s
318.15 K, 101 kPa, x1 = 0.0909 | 3.91 mPa·s and 4.65 mPa·s
318.15 K, 101 kPa, x1 = 0.13 | 10.56 mPa·s and 8 mPa·s
323.15 K, 101 kPa, x1 = 0.011 | 0.72 mPa·s and 0.78 mPa·s
323.15 K, 101 kPa, x1 = 0.02 | 0.8435 mPa·s and 0.7914 mPa·s
323.15 K, 101 kPa, x1 = 0.0244 | 0.97 mPa·s
323.15 K, 101 kPa, x1 = 0.0411 | 1.29 mPa·s
323.15 K, 101 kPa, x1 = 0.0625 | 2.19 mPa·s
323.15 K, 101 kPa, x1 = 0.0909 | 3.68 mPa·s and 4.56 mPa·s
323.15 K, 101 kPa, x1 = 0.13 | 8.63 mPa·s and 7.5 mPa·s

CCCCCCn1cc[n+](C)c1.[Cl-] + CCCCCCn1cc[n+](C)c1.F[B-](F)(F)F
101 kPa
Settings | viscosity [mPa·s]
303.15 K, x1 = 0.2 | 375.2
303.15 K, x1 = 0.4 | 795.2
308.15 K, x1 = 0.4 | 552.8
313.15 K, x1 = 0.4 | 394.5
318.15 K, x1 = 0.6 | 563.8
323.15 K, x1 = 0.6 | 403.5
323.15 K, x1 = 0.8 | 843.9

O=[N+]([O-])c1cccc(O)c1 + CCCCCOC(C)=O
Settings | viscosity [mPa·s]
298.15 K, 101 kPa, x1 = 0.5 | 1.449

CCCCCC(C)O (centres undefined) + CN(C)C=O
viscosity [mPa·s], 101 kPa
Settings | x2 = 0.1086 | x2 = 0.153 | x2 = 0.24 | x2 = 0.3446 | x2 = 0.4409 | x2 = 0.5599 | x2 = 0.6544 | x2 = 0.7432 | x2 = 0.8428 | x2 = 0.9372
298.15 K | 4.28 | 4 | 3.56 | 3.15 | 2.78 | 2.35 | 2.01 | 1.68 | 1.34 | 1.03
303.15 K | 3.46 | 3.21 | 2.85 | 2.52 | 2.25 | 1.92 | 1.67 | 1.42 | 1.17 | 0.93
308.15 K | 2.79 | 2.6 | 2.31 | 2.04 | 1.83 | 1.58 | 1.4 | 1.22 | 1.03 | 0.84
313.15 K | 2.32 | 2.15 | 1.91 | 1.69 | 1.53 | 1.34 | 1.2 | 1.07 | 0.91 | 0.77
